{
  "source": "patent US9382254B2",
  "about": "“Compounds and pharmaceutical compositions thereof for the treatment of cystic fibrosis” (Galapagos NV, priority 2013, dated 2016)",
  "format_in_all_cases": "cell-based",
  "key": {"[1]": {"target": "T1, CFTR-R117H (Homo sapiens, UniProt P13569, R117H)", "T1 construct": "expressed in transfected cells", "T1 sequence (P13569 whole entry R117H)": "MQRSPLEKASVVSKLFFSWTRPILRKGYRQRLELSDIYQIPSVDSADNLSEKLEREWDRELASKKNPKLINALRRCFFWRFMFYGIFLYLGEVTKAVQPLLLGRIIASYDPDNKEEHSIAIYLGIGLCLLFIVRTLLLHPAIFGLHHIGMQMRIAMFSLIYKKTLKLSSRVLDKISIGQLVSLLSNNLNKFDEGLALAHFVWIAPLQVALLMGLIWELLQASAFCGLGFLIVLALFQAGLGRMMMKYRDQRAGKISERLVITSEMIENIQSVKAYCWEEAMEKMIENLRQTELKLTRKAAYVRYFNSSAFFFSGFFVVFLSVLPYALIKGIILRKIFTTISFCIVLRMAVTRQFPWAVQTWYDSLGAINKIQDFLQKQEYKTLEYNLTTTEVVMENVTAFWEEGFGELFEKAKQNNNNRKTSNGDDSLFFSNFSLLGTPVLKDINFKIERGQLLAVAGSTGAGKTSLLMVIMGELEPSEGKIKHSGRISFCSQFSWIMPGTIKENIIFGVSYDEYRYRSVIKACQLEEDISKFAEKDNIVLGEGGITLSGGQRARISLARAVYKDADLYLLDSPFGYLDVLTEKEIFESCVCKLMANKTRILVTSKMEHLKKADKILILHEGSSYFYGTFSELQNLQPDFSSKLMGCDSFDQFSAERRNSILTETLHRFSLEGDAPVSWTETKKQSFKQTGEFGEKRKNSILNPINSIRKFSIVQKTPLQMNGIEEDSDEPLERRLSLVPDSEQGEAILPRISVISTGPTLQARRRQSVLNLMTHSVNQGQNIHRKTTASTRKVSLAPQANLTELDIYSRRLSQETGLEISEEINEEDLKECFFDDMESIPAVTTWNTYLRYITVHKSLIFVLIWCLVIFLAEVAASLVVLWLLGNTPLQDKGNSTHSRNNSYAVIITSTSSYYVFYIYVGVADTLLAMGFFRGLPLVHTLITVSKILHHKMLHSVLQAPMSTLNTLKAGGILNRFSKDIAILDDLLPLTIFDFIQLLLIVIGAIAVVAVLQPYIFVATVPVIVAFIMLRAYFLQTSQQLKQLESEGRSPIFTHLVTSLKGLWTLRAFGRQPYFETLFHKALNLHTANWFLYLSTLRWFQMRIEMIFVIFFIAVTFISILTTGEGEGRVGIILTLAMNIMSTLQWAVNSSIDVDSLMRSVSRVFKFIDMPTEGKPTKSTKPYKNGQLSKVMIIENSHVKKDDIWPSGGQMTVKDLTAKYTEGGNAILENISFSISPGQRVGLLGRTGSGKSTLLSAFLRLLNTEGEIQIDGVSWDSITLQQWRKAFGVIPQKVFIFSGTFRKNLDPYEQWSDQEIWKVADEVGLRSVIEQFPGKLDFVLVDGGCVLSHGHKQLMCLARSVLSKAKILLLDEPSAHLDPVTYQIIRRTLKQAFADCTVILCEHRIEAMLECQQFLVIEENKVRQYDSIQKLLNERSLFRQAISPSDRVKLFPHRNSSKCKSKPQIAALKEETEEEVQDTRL", "assay": "YFP-halide influx assay for the CFTR-R117H", "outline": "(§1)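 HEK293 cells reverse-transfected with the CFTR mutant plus halide-sensitive YFP (H148Q/I152L/F47L), expressed 24 h at 37 °C. Channel activity measured as I⁻-induced fluorescence quenching over 7 s after injection, expressed as 1-F/F0; EC50 from 1-F/F0 versus compound concentration.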"}, "[2]": {"target": "T2, CFTR ΔF508 mutant (Homo sapiens, UniProt P13569, DEL508-508)", "T2 construct": "expressed in transfected cells; host or cells: CFBE41o- (adenoviral transduction)", "T2 sequence (P13569 with tags, fused parts or gaps DEL508-508)": "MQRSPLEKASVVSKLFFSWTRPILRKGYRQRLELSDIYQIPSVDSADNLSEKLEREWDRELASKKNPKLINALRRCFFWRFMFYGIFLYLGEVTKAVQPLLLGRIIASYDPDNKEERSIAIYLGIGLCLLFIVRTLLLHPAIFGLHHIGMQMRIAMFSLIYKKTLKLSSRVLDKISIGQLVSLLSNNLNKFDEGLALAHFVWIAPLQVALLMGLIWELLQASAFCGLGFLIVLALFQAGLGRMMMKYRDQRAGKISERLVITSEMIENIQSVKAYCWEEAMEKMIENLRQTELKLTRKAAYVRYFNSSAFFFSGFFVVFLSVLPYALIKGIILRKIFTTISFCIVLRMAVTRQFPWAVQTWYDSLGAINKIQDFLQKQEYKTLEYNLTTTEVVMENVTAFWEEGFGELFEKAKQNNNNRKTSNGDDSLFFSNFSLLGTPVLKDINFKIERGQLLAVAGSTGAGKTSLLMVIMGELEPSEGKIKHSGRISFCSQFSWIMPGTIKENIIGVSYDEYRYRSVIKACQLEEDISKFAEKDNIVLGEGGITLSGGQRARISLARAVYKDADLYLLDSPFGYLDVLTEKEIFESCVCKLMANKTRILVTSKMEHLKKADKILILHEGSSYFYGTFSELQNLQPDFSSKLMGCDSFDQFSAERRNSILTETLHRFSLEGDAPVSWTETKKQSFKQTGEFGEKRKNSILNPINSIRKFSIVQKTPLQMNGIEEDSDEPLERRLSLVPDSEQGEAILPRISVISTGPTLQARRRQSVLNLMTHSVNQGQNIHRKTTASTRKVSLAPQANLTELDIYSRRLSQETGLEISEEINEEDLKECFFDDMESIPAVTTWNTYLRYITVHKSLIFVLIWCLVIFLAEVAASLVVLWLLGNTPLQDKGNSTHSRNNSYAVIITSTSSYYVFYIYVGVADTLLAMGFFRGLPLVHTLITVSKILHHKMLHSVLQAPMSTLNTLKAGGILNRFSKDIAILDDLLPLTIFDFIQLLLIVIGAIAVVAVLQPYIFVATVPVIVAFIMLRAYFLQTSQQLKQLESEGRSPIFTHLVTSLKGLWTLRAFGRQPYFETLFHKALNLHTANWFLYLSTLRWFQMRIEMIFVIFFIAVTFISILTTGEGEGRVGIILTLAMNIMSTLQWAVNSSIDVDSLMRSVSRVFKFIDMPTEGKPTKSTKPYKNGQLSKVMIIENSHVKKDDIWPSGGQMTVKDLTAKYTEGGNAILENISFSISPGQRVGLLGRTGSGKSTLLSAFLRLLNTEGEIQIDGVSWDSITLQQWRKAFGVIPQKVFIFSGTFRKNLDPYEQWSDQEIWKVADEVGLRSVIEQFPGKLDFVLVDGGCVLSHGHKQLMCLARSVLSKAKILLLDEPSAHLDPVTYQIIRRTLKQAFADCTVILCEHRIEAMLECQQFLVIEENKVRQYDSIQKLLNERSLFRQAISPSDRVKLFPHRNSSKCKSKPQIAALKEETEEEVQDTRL", "assay": "YFP-halide influx assay for the CFTR-ΔF508 mutation (384 well, FDSS/μCell)", "conditions": "CFBE41o- cells, CFTR-ΔF508, 1×D-PBS, fluorescence after 36 seconds", "outline": "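Potentiator read-out as 1−F/F0, F taken 36 s after iodide addition, EC50 fitted against compound concentration. Cells: CFBE41o- expressing ΔF508 CFTR plus halide-sensitive YFP via adenovirus, rescued by 27 °C for 24 h or 24 h modulator at 37 °C.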"}, "[3]": {"target": "T3, CFTR-G178R (Homo sapiens, UniProt P13569, G178R)", "T3 construct": "expressed in transfected cells", "T3 sequence (P13569 whole entry G178R)": "as the sequence (P13569 whole entry R117H) above, with H117R, G178R counted along it", "assay": "YFP-halide influx assay for the CFTR-G178R", "outline": "as §1"}, "[4]": {"target": "T4, CFTR-S549N (Homo sapiens, UniProt P13569, S549N)", "T4 construct": "expressed in transfected cells", "T4 sequence (P13569 whole entry S549N)": "as the sequence (P13569 whole entry R117H) above, with H117R, S549N counted along it", "assay": "YFP-halide influx assay for the CFTR-S549N", "outline": "as §1"}, "[5]": {"target": "T2, CFTR ΔF508 mutant", "assay": "YFP-halide influx assay for the CFTR-ΔF508 mutation, gluconate buffer", "conditions": "CFBE41o- cells, forskolin 10.67 μM", "outline": "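CFBE41o- cells adenovirally transduced with CFTR ΔF508 and YFP H148Q/I152L, then held 24 h at 27 °C or treated with CFTR modulator 24 h at 37 °C. I− quenching recorded for 7 s after injection; activity as 1-F/F0, EC50 from concentration plot.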"}, "[6]": {"target": "T2, CFTR ΔF508 mutant", "assay": "YFP-halide influx assay for the CFTR-ΔF508 mutation, PBS buffer (96 well)", "conditions": "CFBE41o- cells, forskolin 10.67 μM", "outline": "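CFBE41o- cells were adenovirally transduced with CFTR ΔF508 and YFP H148Q/I152L, then incubated 24 h at 27 °C or with a CFTR modulator at 37 °C. I⁻-induced fluorescence quenching was recorded over 7 s after injection; response expressed as 1−F/F0, with EC50 from concentration plots.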"}, "[7]": {"target": "T5, CFTR G551D mutant (Homo sapiens, UniProt P13569, G551D)", "T5 construct": "expressed in transfected cells; host or cells: HEK293 (reverse transfection with plasmid)", "T5 sequence (P13569 whole entry G551D)": "as the sequence (P13569 whole entry R117H) above, with H117R, G551D counted along it", "assay": "YFP-halide influx assay for the CFTR-G551D mutation", "conditions": "HEK293 cells, forskolin 10.67 μM", "outline": "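HEK293 cells reverse-transfected with CFTR G551D and YFP H148Q/I152L/F47L halide sensor, expressed 24 h at 37 °C. Iodide-induced fluorescence quench recorded 7 s after I− injection; response = 1−F/F0, with EC50 from plot against compound concentration.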"}, "[8]": {"target": "T6, CFTR-G1349D (Homo sapiens, UniProt P13569, G1349D)", "T6 construct": "expressed in transfected cells", "T6 sequence (P13569 whole entry G1349D)": "as the sequence (P13569 whole entry R117H) above, with H117R, G1349D counted along it", "assay": "YFP-halide influx assay for the CFTR-G1349D", "outline": "as §1"}},
  "data": [
    {"smiles": "CN(Cc1ccccc1)S(=O)(=O)c1cc(C(N)=O)c(NC(=O)c2ccn[nH]2)s1", "note": "[Compound 73, N-(5-(N-benzyl-N-methylsulfamoyl)-3-carbamoylthiophen-2-yl)-1H-pyrazole-3-carboxamide]", "values": [
      {"measurement": "EC50", "setting": "[1]", "value": 168, "unit": "nM"},
      {"measurement": "EC50", "setting": "[2]", "value": 15.7, "unit": "nM"},
      {"measurement": "EC50", "setting": "[3]", "value": 44.7, "unit": "nM"},
      {"measurement": "EC50", "setting": "[4]", "value": 162, "unit": "nM"},
      {"measurement": "EC50", "setting": "[5]", "value": 25.1, "unit": "nM"},
      {"measurement": "EC50", "setting": "[6]", "value": 16.5, "unit": "nM"},
      {"measurement": "EC50", "setting": "[7]", "value": 232, "unit": "nM"},
      {"measurement": "EC50", "setting": "[8]", "value": 41.6, "unit": "nM"}
    ]},
    {"smiles": "NC(=O)c1cc(S(=O)(=O)c2ccccc2)sc1NC(=O)c1cc[nH]n1", "note": "[Compound 83, N-(3-carbamoyl-5-(phenylsulfonyl)thiophen-2-yl)-1H-pyrazole-3-carboxamide]", "values": [
      {"measurement": "EC50", "setting": "[1]", "value": 222, "unit": "nM"},
      {"measurement": "EC50", "setting": "[2]", "value": 12.1, "unit": "nM"},
      {"measurement": "EC50", "setting": "[3]", "value": 71.3, "unit": "nM"},
      {"measurement": "EC50", "setting": "[4]", "value": 353, "unit": "nM"},
      {"measurement": "EC50", "setting": "[5]", "value": 42.8, "unit": "nM"},
      {"measurement": "EC50", "setting": "[6]", "value": 30.8, "unit": "nM"},
      {"measurement": "EC50", "setting": "[7]", "value": 339, "unit": "nM"},
      {"measurement": "EC50", "setting": "[8]", "value": 152, "unit": "nM"}
    ]},
    {"smiles": "CC(C)(O)C(=O)Nc1sc(S(=O)(=O)c2ccc(OC(F)(F)F)cc2)cc1C(N)=O", "note": "[Compound 270, 2-(2-hydroxy-2-methylpropanamido)-5-(4-(trifluoromethoxy)phenylsulfonyl) thiophene-3-carboxamide]", "values": [
      {"measurement": "EC50", "setting": "[1]", "value": 181, "unit": "nM"},
      {"measurement": "EC50", "setting": "[2]", "value": 18.3, "unit": "nM"},
      {"measurement": "EC50", "setting": "[3]", "value": 291, "unit": "nM"},
      {"measurement": "EC50", "setting": "[4]", "value": 415, "unit": "nM"},
      {"measurement": "EC50", "setting": "[6]", "value": 19.7, "unit": "nM"},
      {"measurement": "EC50", "setting": "[7]", "value": 478, "unit": "nM"},
      {"measurement": "EC50", "setting": "[8]", "value": 211, "unit": "nM"}
    ]},
    {"smiles": "CC(C)(O)C(=O)Nc1sc(S(=O)(=O)c2ccccc2OC(F)(F)F)cc1C(N)=O", "note": "[Compound 271, 2-(2-hydroxy-2-methylpropanamido)-5-(2-(trifluoromethoxy)phenylsulfonyl) thiophene-3-carboxamide]", "values": [
      {"measurement": "EC50", "setting": "[1]", "value": 40, "unit": "nM"},
      {"measurement": "EC50", "setting": "[2]", "value": 7.5, "unit": "nM"},
      {"measurement": "EC50", "setting": "[3]", "value": 23.9, "unit": "nM"},
      {"measurement": "EC50", "setting": "[4]", "value": 60.9, "unit": "nM"},
      {"measurement": "EC50", "setting": "[6]", "value": 8.1, "unit": "nM"},
      {"measurement": "EC50", "setting": "[7]", "value": 178, "unit": "nM"},
      {"measurement": "EC50", "setting": "[8]", "value": 37.5, "unit": "nM"}
    ]},
    {"smiles": "CC(C)(O)C(=O)Nc1sc(S(=O)(=O)c2ccc(F)cc2Cl)cc1C(N)=O", "note": "[Compound 286, 5-(2-chloro-4-fluorophenylsulfonyl)-2-(2-hydroxy-2-methylpropanamido) thiophene-3-carboxamide]", "values": [
      {"measurement": "EC50", "setting": "[1]", "value": 160, "unit": "nM"},
      {"measurement": "EC50", "setting": "[2]", "value": 26.5, "unit": "nM"},
      {"measurement": "EC50", "setting": "[3]", "value": 165, "unit": "nM"},
      {"measurement": "EC50", "setting": "[4]", "value": 1150, "unit": "nM"},
      {"measurement": "EC50", "setting": "[6]", "value": 46.2, "unit": "nM"},
      {"measurement": "EC50", "setting": "[7]", "value": 857, "unit": "nM"},
      {"measurement": "EC50", "setting": "[8]", "value": 304, "unit": "nM"}
    ]},
    {"smiles": "CC(C)(O)C(=O)Nc1sc(S(=O)(=O)c2ccccc2Cl)cc1C(N)=O", "note": "[Compound 290, 5-(2-chlorophenylsulfonyl)-2-(2-hydroxy-2-methylpropanamido) thiophene-3-carboxamide]", "values": [
      {"measurement": "EC50", "setting": "[1]", "value": 166, "unit": "nM"},
      {"measurement": "EC50", "setting": "[2]", "value": 27.6, "unit": "nM"},
      {"measurement": "EC50", "setting": "[3]", "value": 207, "unit": "nM"},
      {"measurement": "EC50", "setting": "[4]", "value": 871, "unit": "nM"},
      {"measurement": "EC50", "setting": "[6]", "value": 34.3, "unit": "nM"},
      {"measurement": "EC50", "setting": "[7]", "value": 880, "unit": "nM"},
      {"measurement": "EC50", "setting": "[8]", "value": 258, "unit": "nM"}
    ]},
    {"smiles": "CC(C)(O)C(=O)Nc1sc(S(=O)(=O)c2c(Cl)cccc2Cl)cc1C(N)=O", "note": "[Compound 298, 5-(2,6-Dichloro-benzenesulfonyl)-2-(2-hydroxy-2-methyl-propionylamino)-thiophene-3-carboxylic acid amide]", "values": [
      {"measurement": "EC50", "setting": "[1]", "value": 97.2, "unit": "nM"},
      {"measurement": "EC50", "setting": "[2]", "value": 5.5, "unit": "nM"},
      {"measurement": "EC50", "setting": "[3]", "value": 104, "unit": "nM"},
      {"measurement": "EC50", "setting": "[4]", "value": 164, "unit": "nM"},
      {"measurement": "EC50", "setting": "[6]", "value": 6.2, "unit": "nM"},
      {"measurement": "EC50", "setting": "[7]", "value": 207, "unit": "nM"},
      {"measurement": "EC50", "setting": "[8]", "value": 69.5, "unit": "nM"}
    ]}
  ]
}
